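Briefly, cells in 96-well plates were exposed to five compound concentrations for 48 h, and endpoints were estimated by linear interpolation. GI50 marks 50% less growth.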 Active and inactive are the calls of the source. Cut-off read from the data, not from the text of the source: active = GI50 up to about 1.1 µM and inactive = higher.
What was measured:
Assay in all cases: NCI anticancer screen, dose series, 48 h
DLD-1 = tested on: DLD-1
KM-20L2 = tested on: KM-20L2
HOP-18 = tested on: HOP-18
DMS-273 = tested on: DMS-273
XF498 = tested on: XF498
RXF 631 = tested on: RXF 631
M19-MEL = tested on: M19-MEL
DMS-114 = tested on: DMS-114
SNB-78 = tested on: SNB-78

Measured: GI50

Oc1cc(-c2cccs2)nc2cc3c(cc12)OCO3
inactive: DLD-1 5.13 µM | KM-20L2 15.9 µM | HOP-18 > 100 µM | DMS-273 3.34 µM | XF498 3.54 µM | RXF 631 28.2 µM | M19-MEL 3.34 µM | DMS-114 3.93 µM | SNB-78 7.36 µM

COc1c(OC(C)=O)cc2c(OC(C)=O)c1CC(C)CC(OC)C(O)C(C)/C=C(\C)C(OC(N)=O)C(OC)/C=C\C=C(/C)C(=O)N2 (configuration not stated)
inactive: DLD-1 > 49.8 µM | KM-20L2 > 62.1 µM | HOP-18 > 100 µM | DMS-273 > 70.1 µM | XF498 > 90.4 µM | RXF 631 > 100 µM | M19-MEL > 76.4 µM | DMS-114 > 64.7 µM | SNB-78 > 100 µM

NC(=O)C(=O)CC(=O)c1ccccc1NC1=CC(=O)C(=O)c2ccccc21
inactive: DLD-1 42.3 µM | KM-20L2 > 100 µM | HOP-18 > 100 µM | DMS-273 53.1 µM | XF498 > 100 µM | RXF 631 > 100 µM | M19-MEL 7.74 µM | DMS-114 16.7 µM | SNB-78 58.6 µM

Reference: ChEMBL document CHEMBL1201862, “PubChem BioAssay data set” (2004)
